Key:
HIF-1α = molecular target: T1, HIF-1α (Mus musculus, UniProt Q61221); test: Western blot of HIF-1α protein accumulation in retina of OIR mice (P13); type: in vivo
T1 construct: from tissue; host or cells: retina of C57BL/6 OIR pups
Procedure: (§1) Immunoblot assays. Cells, neurosensory retina, and D120 retinal organoid lysates were subjected to 4–15% gradient SDS/PAGE (Invitrogen). Immunoblot (Western blot or WB) assays were performed as previously described (1).
(§2) Reverse transcription and quantitative real-time PCR. Total RNA was isolated from cultured cells or retinas with PureLinkTM RNA Mini Kit (Invitrogen #12183025), and cDNA was prepared with MuLV Reverse Transcriptase (Applied Biosystems). Quantitative real-time PCR was performed with Power SYBR Green PCR Master Mix (Applied Biosystems) and MyiQ Real-Time PCR Detection System (Bio-Rad). Normalization was done using cyclophilin A for mouse tissue and human cell lines. Primers are listed in Supplemental Table 2.
(§3) Angiogenesis array. […]
(§4) cDNA was prepared with QuantiTect® Reverse Transcription Kit (Qiagen, Cat# 205311). […]
(§5) 4444554). […] The data were analyzed by using HPRT1 as endogenous […]
(§6) HUVEC cells, Euclidean distance was used to quantify the difference in qPCR screening. The Euclidean distance was calculated using “dist” function from R’s default stat library that measures the distance between 2 vectors (i.e., total qPCR expression values in control and treatment). […]
(§7) STZ-induced diabetes mouse model. […] Blood glucose was measured on experimental day 28 after 16 hours fasting and mice with blood glucose level > 250 mg/dL were considered […]

HIF-2α [1] = molecular target: T2, HIF-2α (Mus musculus, UniProt P97481); test: Western blot of HIF-2α protein accumulation in retina of OIR mice (P14); type: in vivo
T2 construct: from tissue; host or cells: retina of C57BL/6 OIR pups
T2 sequence (P97481 whole entry): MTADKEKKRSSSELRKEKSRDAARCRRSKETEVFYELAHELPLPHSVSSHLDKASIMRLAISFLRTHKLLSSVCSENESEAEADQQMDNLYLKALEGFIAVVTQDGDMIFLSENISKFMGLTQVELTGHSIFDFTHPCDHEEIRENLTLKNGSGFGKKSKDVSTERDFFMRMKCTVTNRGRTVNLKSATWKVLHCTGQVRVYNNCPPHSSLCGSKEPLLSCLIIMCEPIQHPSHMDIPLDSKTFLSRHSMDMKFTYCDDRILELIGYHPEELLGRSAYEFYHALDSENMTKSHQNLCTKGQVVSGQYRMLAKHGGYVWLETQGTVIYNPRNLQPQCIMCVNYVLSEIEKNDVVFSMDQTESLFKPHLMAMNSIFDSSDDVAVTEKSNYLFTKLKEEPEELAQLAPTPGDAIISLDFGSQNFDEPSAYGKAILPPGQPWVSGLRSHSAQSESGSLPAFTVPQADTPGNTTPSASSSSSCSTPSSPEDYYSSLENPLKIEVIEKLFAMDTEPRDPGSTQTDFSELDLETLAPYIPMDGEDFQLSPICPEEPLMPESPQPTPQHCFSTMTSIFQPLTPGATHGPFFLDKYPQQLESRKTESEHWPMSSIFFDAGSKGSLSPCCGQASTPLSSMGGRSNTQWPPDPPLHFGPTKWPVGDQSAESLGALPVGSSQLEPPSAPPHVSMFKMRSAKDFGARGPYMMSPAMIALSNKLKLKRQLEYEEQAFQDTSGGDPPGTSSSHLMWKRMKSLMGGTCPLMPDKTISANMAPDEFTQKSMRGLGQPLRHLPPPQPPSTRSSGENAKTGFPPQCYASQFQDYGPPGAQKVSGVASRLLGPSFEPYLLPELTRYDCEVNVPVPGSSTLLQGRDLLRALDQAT
Procedure: as §1, §2, §3, §4, §5, §6, §7

HIF-2α [2] = molecular target: HIF-2α (Homo sapiens, UniProt Q99814); test: Immunoblot of HIF-2α accumulation in MIO-M1 cells cultured in hypoxia; type: cell-based; design: endogenous in cells; host or cells: MIO-M1; conditions: MIO-M1, 1 μM 32-134D, 1% O2 4 hours
Sequence of HIF-2α (Homo sapiens, UniProt Q99814) (Q99814 whole entry): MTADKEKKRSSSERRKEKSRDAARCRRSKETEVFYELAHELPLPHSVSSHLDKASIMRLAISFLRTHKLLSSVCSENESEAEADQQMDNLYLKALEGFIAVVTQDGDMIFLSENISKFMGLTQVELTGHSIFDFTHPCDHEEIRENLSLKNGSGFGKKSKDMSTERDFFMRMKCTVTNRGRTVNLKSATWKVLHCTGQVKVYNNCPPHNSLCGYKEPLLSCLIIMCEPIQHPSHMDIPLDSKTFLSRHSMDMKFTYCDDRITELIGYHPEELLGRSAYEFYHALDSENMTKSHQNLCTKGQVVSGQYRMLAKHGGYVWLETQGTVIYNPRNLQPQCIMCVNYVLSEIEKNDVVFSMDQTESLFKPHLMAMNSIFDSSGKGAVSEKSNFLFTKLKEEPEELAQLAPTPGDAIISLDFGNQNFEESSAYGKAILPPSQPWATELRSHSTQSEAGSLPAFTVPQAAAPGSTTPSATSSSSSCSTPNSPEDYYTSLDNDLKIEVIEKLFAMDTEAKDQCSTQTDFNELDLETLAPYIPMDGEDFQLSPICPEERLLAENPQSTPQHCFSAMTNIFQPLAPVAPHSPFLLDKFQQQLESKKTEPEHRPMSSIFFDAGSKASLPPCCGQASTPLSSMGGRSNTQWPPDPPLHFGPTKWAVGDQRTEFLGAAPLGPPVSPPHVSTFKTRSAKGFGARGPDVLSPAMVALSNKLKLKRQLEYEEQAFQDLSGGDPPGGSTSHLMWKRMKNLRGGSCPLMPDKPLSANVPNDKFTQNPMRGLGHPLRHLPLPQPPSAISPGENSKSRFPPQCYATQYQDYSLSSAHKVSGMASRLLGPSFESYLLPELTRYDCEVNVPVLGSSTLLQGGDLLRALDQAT
Procedure: MIO-M1, HUVECs, and ARPE19 cells were cultured in DMEM with 10% (vol/vol) FBS (Quality Biological) and 1% penicillin/streptomycin (Cellgro). A hypoxic chamber (Coy Laboratory Product Inc.; Two Glove Model) with 5% CO2, 94% N2, and 1% O2 gas concentration at 37°C was used to culture hypoxic cells. The control cells were cultured in an incubator maintained at 37°C, with 21% O2 and 5% CO2. […] Aflibercept was obtained from the Johns Hopkins University Pharmacy.
Immunoblot assays. Cells, neurosensory retina, and D120 retinal organoid lysates were subjected
to 4–15% gradient SDS/PAGE (Invitrogen). Immunoblot (Western blot or WB) assays were
performed as previously described (1). […]

T1 sequence (Q61221 whole entry): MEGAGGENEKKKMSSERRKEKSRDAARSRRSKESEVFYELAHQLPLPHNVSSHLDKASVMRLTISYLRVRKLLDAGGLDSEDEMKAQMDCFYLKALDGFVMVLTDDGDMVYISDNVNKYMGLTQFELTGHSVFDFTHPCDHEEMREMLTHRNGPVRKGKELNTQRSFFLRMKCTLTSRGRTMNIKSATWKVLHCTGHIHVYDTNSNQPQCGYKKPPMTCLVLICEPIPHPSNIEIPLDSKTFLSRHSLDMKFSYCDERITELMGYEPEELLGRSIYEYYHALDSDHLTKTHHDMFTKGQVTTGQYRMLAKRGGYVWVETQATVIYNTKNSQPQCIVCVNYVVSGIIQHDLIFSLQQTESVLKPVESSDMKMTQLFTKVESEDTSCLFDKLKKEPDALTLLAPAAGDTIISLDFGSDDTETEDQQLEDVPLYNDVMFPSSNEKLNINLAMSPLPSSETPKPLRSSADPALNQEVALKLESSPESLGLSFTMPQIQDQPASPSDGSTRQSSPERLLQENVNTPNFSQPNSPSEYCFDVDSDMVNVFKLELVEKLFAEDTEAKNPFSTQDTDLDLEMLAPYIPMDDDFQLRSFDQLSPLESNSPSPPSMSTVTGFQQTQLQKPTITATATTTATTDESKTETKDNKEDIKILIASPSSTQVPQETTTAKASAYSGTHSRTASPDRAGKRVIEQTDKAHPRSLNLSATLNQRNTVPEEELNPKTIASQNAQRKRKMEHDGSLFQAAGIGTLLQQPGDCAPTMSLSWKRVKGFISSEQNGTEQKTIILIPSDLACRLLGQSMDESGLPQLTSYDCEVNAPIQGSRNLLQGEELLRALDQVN

Brc1ccc2c(-c3csc(-c4c[nH]c5c(Br)cccc45)n3)c[nH]c2c1 [32-134D, 4-(6-bromo-1H-indol-3-yl)-2-(7-bromo-1H-indol-3-yl)thiazole]
HIF-1α protein accumulation in OIR mice (HIF-1α; single i.p. injection 20 mg/kg, P13): reduction | accumulation of HIF-1α in OIR mice (HIF-1α; single intraocular injection 14 ng at P12, P13): effectively reduced | HIF-2α protein accumulation in OIR mice (HIF-2α [1]; single i.p. injection 20 mg/kg, P14): reduction | accumulation of HIF-2α in OIR mice (HIF-2α [1]; single intraocular injection 14 ng at P12, P14): effectively reduced | HIF-2α protein accumulation in response to hypoxia (HIF-2α [2]): decreased

— paper PMC10313368 (The Journal of Clinical Investigation, 2023)
